Experiment [1] deals with olfactory sensory neurons. Description: Ca2+ imaging of dissociated olfactory sensory neurons (Fura-2). The experiment is classed as cell-based, mouse. The note with it: 50 μM each; 6 independent neurons (FIG. 2). An excerpt: The olfactory epithelium containing native olfactory neurons from a mouse was isolated and dissociated into single cells and then transferred to a dissociation buffer for a gentle mechanical and enzymatic dissociation. In order to optimize the dissociation protocol, the general procedure for making fresh dissociation buffer was followed as set forth in Araneda et al. (2004), A Pharmacological Profile of the Aldehyde Receptor Repertoire in Rat Olfactory Epithelium. Journal of Physiology: 555:743-756 with the following modifications: DNAse I instead of DNAse II, Ca2+ concentration elevated to 5 mM and pH adjusted at 7.35 at 32°. Dissociated neurons were then seeded on a coverslip allowing the screening of >2,500 cells by fluorescence microscopy. The cells were then loaded with a calcium sensitive dye (Fura-2 AM) for 30 minutes at 31° C. and transferred onto a microscope ready for screening. […]
Olfactory neurons that responded to indole and skatole were identified by stimulating receptors with 50 μm indole followed by 50 μm skatole and monitoring the intracellular Ca2+ flux indicated by changes in Fura-2 fluorescence. […] Average Fluorescence Intensity, relative fluorescent unit as a result of a ratiometric 340/380 nm recordings.

Experiment [2] concerns the target Olfr743 (Mus musculus, UniProt L7N1Y2). The experiment is described as follows: cell-based cAMP assay (HTRF), HEK293T co-transfected with Gαolf. Particulars: for receptor activity (cAMP, HTRF): increasing concentrations, FIGS. 5A-5D. The source says:
The activity of candidate mouse receptors Olfr740 (SEQ ID NO: 1 and SEQ ID NO: 2), Olfr743 (SEQ ID NO: 5 and SEQ ID NO: 6), and Olfr746 (SEQ ID NO: 37 and SEQ ID NO: 38) to both indole and skatole malodors were confirmed in cell-based cAMP assays. In FIGS. 5A and 5B, FLAG Rho-tagged (SEQ ID 18) Olfr743 (SEQ ID NO: 6) and Olfr740 (SEQ ID NO: 2) cDNA sequences were co-transfected with Gαolf (SEQ ID NO: 21) and exposed to increasing concentrations of indole (left) or skatole (right). FIGS. 5C and 5D are repeat experiments showing similar activity of Olfr740 (SEQ ID NO: 2) with Olfr743 (SEQ ID NO: 6) with indole and skatole. In FIG. 5E, the FLAG Rho-tagged (SEQ ID 18) Olfr746 (SEQ ID NO: 38) cDNA sequence was co-transfected with Gαolf (SEQ ID NO: 21) and exposed to increasing concentrations of indole or skatole. Odorant-induced activity was detected by measuring cAMP levels in the cytosol using the HTRF approach (CisBio kit). […] Co-transfection of HEK cells with Gαolf (SEQ ID NO: 21) alone (no receptor) were used as controls for non-specific activity (control). Activity is defined as the baseline corrected HTRF ratios normalized to the highest signal in the experiment. […] All three receptors show specific dose dependent activity to the malodor compounds and, as such, validate the process for identifying receptors for these compounds. Mouse receptors Olfr740 (SEQ ID NO: 1 and SEQ ID NO: 2) and Olfr743 (SEQ ID NO: 5 and SEQ ID NO: 6) were identified from isolated olfactory neurons that responded to both indole and skatole. Mouse receptor Olfr746 (SEQ ID NO: 37 and SEQ ID NO: 38) was identified in silico by database mining using Olfr740 (SEQ ID NO: 2) and Olfr743 (SEQ ID NO: 6) as query sequences. The receptors are modified at their N-terminus with the FLAG tag and the first 20 amino acids of the bovine rhodopsin receptor (SEQ ID 18), transiently expressed in HEK 293T cells, and stimulated separately with indole and skatole to confirm their identity as bona fide indole/skatole receptors. Co-expression of the human G alpha subunit Gαolf (SEQ ID NO: 21) activates the Gs transduction pathway that leads to an internal cAMP increase upon binding to the appropriate ligand.
Once identified using the procedure outlined herein, the resulting malodor receptor cell lines can be used to screen chemical libraries for compounds that modulate their activity and possibly human perception. This experiment was performed under the same conditions as in Example 4. Cells transfected with Rho-tagged (SEQ ID NO: 18) Olfr743 (SEQ ID NO: 6) were exposed to increasing concentrations of indole in the presence or absence of 300 μM 2-actetonaphthone. […] In the presence of the antagonist compound, a rightward shift of in the dose-response curve is observed resulting in a 4 fold increase in the EC50 to indole. Activity is defined as the baseline corrected HTRF ratios normalized to the highest signal in the experiment.
(Changes in cAMP serve as a functional read-out for many G protein-coupled receptors.)

In experiment [3] the test system is Olfr747. Description: in vitro receptor response to indole or skatole. The note with it: despite proper cell surface expression (immunostaining). Format: cell-based, mouse. An excerpt: (§1) In another aspect, human receptor OR52N2 (SEQ ID NO: 11 and SEQ ID NO: 12) was identified because of its sequence similarity to mouse Olfr665 (SEQ ID NO: 9 and SEQ ID NO: 10), an indole/skatole receptor isolated from olfactory neurons responding to both indole and skatole (Example 6). Human receptor OR11G2 (SEQ ID NO: 13 and SEQ ID NO: 14) was identified because of its sequence similarity to mouse Olfr740 (SEQ ID NO: 1 and SEQ ID NO: 2), an indole/skatole receptor isolated from olfactory neurons responding to both indole and skatole (Example 6). Human receptor OR5AC2 (SEQ ID NO: 75 and SEQ ID NO: 76) was identified because of its sequence similarity to mouse Olfr207 (SEQ ID NO: 77 and SEQ ID NO: 78), an indole/skatole receptor isolated from olfactory neurons responding to both indole and skatole (Example 6). Human receptor OR4C15 (SEQ ID NO: 79 and SEQ ID NO: 80) was identified because of its sequence similarity to mouse Olfr1211 (SEQ ID NO: 81 and SEQ ID NO: 82), an indole/skatole receptor isolated from olfactory neurons responding to both indole and skatole (Example 6). Human receptor OR8S1 (SEQ ID NO: 83 and SEQ ID NO: 84) was identified because of its sequence similarity to mouse Olfr257 (SEQ ID NO: 85 and SEQ ID NO: 86), an indole/skatole receptor isolated from olfactory neurons responding to both indole and skatole (Example 6). Mouse receptor Olfr665 (SEQ ID NO: 9 and SEQ ID NO: 10) was identified directly from NGS data from isolated olfactory neurons responding to both indole and skatole (Example 6). Mouse receptor Olfr740 (SEQ ID NO: 1 and SEQ ID NO: 2) was identified directly from NGS data from isolated olfactory neurons responding to both indole and skatole (Example 6).

In experiment [4] the test system is Olfr748. The experiment is described as follows: in vitro receptor response to indole or skatole. The note with it: despite proper cell surface expression (immunostaining). Format: cell-based, mouse.
Source text: as §1

For experiment [5], the system named is Olfr736. Description: in vitro receptor response to indole or skatole. The note with it: likely lack of cell surface expression. The experiment is classed as cell-based, mouse.
Source text: as §1

pEC50: −log10 of the molar value.

The values below come from US9914760B2, “Methods of identifying, isolating and using odorant and aroma receptors” (Firmenich SA, priority 2013, dated 2018).

Broadly, the pEC50 is −log10 of the EC50, conventionally taken in molar units.

Chain of Olfr743 (P38405 2-381): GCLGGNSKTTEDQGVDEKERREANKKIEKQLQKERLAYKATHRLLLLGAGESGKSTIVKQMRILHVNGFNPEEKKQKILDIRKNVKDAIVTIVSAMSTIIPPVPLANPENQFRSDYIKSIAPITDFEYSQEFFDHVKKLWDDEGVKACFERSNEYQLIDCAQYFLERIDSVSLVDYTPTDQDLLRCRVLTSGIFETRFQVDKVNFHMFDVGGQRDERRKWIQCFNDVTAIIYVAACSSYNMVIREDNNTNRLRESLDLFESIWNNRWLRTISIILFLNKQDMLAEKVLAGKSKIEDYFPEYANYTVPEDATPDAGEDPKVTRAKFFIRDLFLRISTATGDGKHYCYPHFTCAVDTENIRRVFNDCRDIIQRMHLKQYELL
Chain of Olfr743 (L7N1Y2 entry or part of it): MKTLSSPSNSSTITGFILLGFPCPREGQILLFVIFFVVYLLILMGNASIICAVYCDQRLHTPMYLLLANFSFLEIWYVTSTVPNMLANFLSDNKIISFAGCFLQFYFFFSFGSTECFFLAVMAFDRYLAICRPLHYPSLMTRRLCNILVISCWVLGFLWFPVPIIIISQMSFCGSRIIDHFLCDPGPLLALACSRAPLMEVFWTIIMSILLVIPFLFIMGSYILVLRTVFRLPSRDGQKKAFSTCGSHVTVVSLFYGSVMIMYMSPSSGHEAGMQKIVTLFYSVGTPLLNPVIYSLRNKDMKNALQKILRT

In the case of `c1ccc2[nH]ccc2c1` [indole], the “activation of olfactory sensory neurons (intracellular Ca2+ flux, Fura-2 fluorescence)” value in experiment [1] is reported as “activated”. In addition, the pEC50 in experiment [2] (EC50, indole alone, absence of 2-acetonaphthone) is 4.27; in experiment [2] (EC50, indole in the presence of 300 μM 2-acetonaphthone), 3.69. Further, in experiment [2], the “receptor activity (cAMP, HTRF)” value is reported as “dose-dependent increase of receptor activity”. In addition, the receptor response result in experiment [3], in experiment [4] and in experiment [5] was “failed to respond” throughout.

As for `Cc1c[nH]c2ccccc12` [skatole, 3-methyl indole], the “activation of olfactory sensory neurons (intracellular Ca2+ flux, Fura-2 fluorescence)” value in experiment [1] is given as “activated”. For the same compound, the “receptor activity (cAMP, HTRF)” value in experiment [2] is “dose-dependent increase of receptor activity”. The receptor response result in experiment [3], in experiment [4] and in experiment [5] was “failed to respond” throughout.
